# Reference: patent US20080293099A1, “Lignan Glycosidase and Utilization of the Same” (priority 2004, published 2008)
# Key:
# [1] = system: SaSiGT8 recombinant protein; test: lignan glycosidation activity assay with SaSiGT8 recombinant protein (SaLGT1) (HPLC analysis); format: biochemical, S. alatum; conditions: recombinant protein expressed in Escherichia coli as in EXAMPLE 11
# Excerpt: The fragment containing ORF of SaSiGT8 was excised from pSPB2697 with BamHI and KpnI and inserted into the BamHI and KpnI sites of Escherichia coli expression vector pQE30 to give the expression vector pSPB2698. The recombinant SaSiGT8 protein (SaLGT1) was expressed as in EXAMPLE 11 to confirm that the protein had the lignan glycosidation activity. It was also confirmed by SDS-PAGE that the recombinant SaSiGT8 protein (ca. 60 kDa) was present in the lysis supernatant of transgenic Escherichia coli expressing the SaSiGT8 gene (FIG. 9).
# [2] = system: SrSiGT8 recombinant protein; test: lignan glycosidation activity assay with purified His-SrSiGT8 recombinant protein (HPLC analysis); format: biochemical, Sesamum radiatum; conditions: Ni column purified, dialyzed His-SrSiGT8, UDP-glucose, 30° C. for an hour
# Method: About 1.4 kb DNA fragment containing the full-length SrSiGT8 was excised from pSPB2656 with BamHI/KpnI and then ligated to the BamHI/KpnI site of pQE30 vector (QIAGEN), which was an expression vector for Escherichia coli, to obtain SrSiGT8/pQE30 (pSPB2657). This pSPB2657 expresses recombinant protein (His-SrSiGT8) with His tag consisting of 6 histidine residues fused to SrSiGT8 at the N terminus.
# Escherichia coli transformed with pSPB2657 was incubated as in EXAMPLE 7 to express a recombinant protein. The following experiment was all carried out on ice or at 4° C., unless otherwise indicated.
# After the cells were dissolved in 5 ml of lysis buffer (20 mM sodium phosphate buffer, 30 mM imidazole, 500 mM NaCl, 5 mM β-mercaptoethanol and 100 μM APSMF) per 1 g, the cells were lysed by ultrasonication, followed by centrifugation at 4000 rpm for 10 minutes. The supernatant obtained was recovered as the crude enzyme solution.
# Next, the His-SrSiGT8 recombinant protein was purified through a Ni column. Chelating Sepharose FF resin (Amersham Bioscience) was packed in the column and 0.1M NiSO4 in a volume equal to the resin was added to the resin. Subsequently, the column was washed with water in a volume twice the volume of the resin and then with 20% ethanol in a volume 3 times the volume of the resin.
# Then, the column was equilibrated with a lysis buffer in a volume 5 times the volume of the resin and a sample obtained by diluting 5 mL of the crude enzyme solution described above with the lysis buffer to 10-fold was loaded on the column. After the sample naturally dropped by the gravity, the sample was washed 3 times with the lysis buffer in a volume 5 times the volume of the resin and then eluted using 5 ml of an elution buffer (20 mM sodium phosphate buffer, 500 mM imidazole, 500 mM NaCl, 5 mM β-mercaptoethanol and 100 μM APSMF) […]
# To 300 μl of the dialyzed sample, 20 μl of the substrate solution (1 mg/ml) and 3 μl of 20 mM UDP-glucose were added to react at 30° C. for an hour. The reaction product was analyzed in a manner similar to EXAMPLE 8.
# [3] = system: SiGT8 recombinant protein; test: lignan glycosidation activity assay with SiGT8 recombinant protein (HPLC analysis of the product); format: biochemical, Sesamum indicum; conditions: crude enzyme solution expressed in Escherichia coli, UDP-glucose, 30° C. for an hour, absorption at 287 nm
# Method: (§1) Escherichia coli JM109 (TOYOBO) was transformed with Escherichia coli expression vectors pSPB2637, pSPB2642, pSPB2645, pSPB2639 and pSPB2640 prepared in EXAMPLE 6, and preincubated at 37° C. overnight in LB medium supplemented with ampicillin in final concentration of 20 μg/ml. A part of the preincubation culture was added to M9 medium (10 ml) containing 50 μg/ml of ampicillin and 0.5% Casamino acid, and shake cultured to reach A600=0.6-1.0. The composition of M9 medium is as follows: 1×M9 salt, 1 mM MgSO4, 0.2% glucose and 0.001% thiamine hydrochloride. The composition of 10×M9 medium is as follows: a 500 ml aqueous solution containing 30 g of Na2HPO4, 15 g of KH2PO4, 2.5 g of NaCl and 5 g of NH4Cl. Next, IPTG (isopropyl-β-D-thiogalactopyranoside) in a final concentration of 0.5 mM was added to the culture. After further shake culture at 30° C. overnight, centrifugation was performed at 3000 rpm at 4° C. for 10 minutes to collect the cells. […]
# (§2) Pinoresinol, piperitol or sesaminol was dissolved in a small quantity of DMSO and further dissolved in 70% ethanol to prepare a substrate solution (1 mg/ml). […]
# (§3) The enzyme reaction was terminated by adding 100% acetonitrile (250 μl) containing 0.1% TFA (trifluoroacetic acid) to the reaction tube. […] The resulting supernatant was washed through a filter (pore size of […], 4 mm Millex-LH, Millipore) and then analyzed using high performance liquid chromatography (hereinafter HPLC). […]
# Liquid chromatography (Lc-2010c (Shimadzu Corporation)) was performed using a C-30 column (Nomura Chemical, C30-UG-5, 4.6 mm×150 mm). […] Absorption was monitored at 287 nm to detect the compound contained in a sample. The spectra between 190 nm and 400 nm for each peak of the compound were measured using SPD-10AV (Shimadzu Corporation) to detect a substance having two absorption maxima (230 nm and 280 nm) characteristic of lignans. Under the conditions, authentic pinoresinol is detected at about 8.4 minutes, authentic piperitol at about 12.8 minutes and authentic sesaminol at about 13.8 minutes (FIGS. 2 and 3).
# [4] = system: SiGT10 recombinant protein; test: lignan glycosidation activity assay with SiGT10 recombinant protein (HPLC analysis of the product); format: biochemical, Sesamum indicum; conditions: crude enzyme solution expressed in Escherichia coli, UDP-glucose, 30° C. for an hour, absorption at 287 nm
# Method: as §1, with “NH4Cl.” for “NH4Cl. Next, IPTG (isopropyl-β-D-thiogalactopyranoside) in a final concentration of 0.5 mM was added to the culture. After further shake culture at 30° C. overnight, centrifugation was performed at 3000 rpm at 4° C. for 10 minutes to collect the cells.”
# as §2, §3
# Liquid chromatography (Lc-2010c (Shimadzu Corporation)) was performed using a C-30 column (Nomura Chemical, C30-UG-5, 4.6 mm×150 mm). […] Absorption was monitored at 287 nm to detect the compound contained in a sample. […]
Compound,"glycosidation of the lignan substrate by SaSiGT8 (monoglucoside formed, HPLC) [1]",glycosidation of the lignan substrate by SrSiGT8 (new product peak with lignan spectrum in HPLC) [2],glycosidation of the lignan substrate by SiGT8 (new product peak with lignan spectrum in HPLC) [3],glycosidation of the lignan substrate by SiGT10 (new product peak with lignan spectrum in HPLC) [4]
COc1cc([C@@H]2OC[C@@H]3[C@H]2CO[C@H]3c2ccc3c(c2)OCO3)ccc1O [piperitol],produced the respective monoglucosides,peak E having a new spectrum for lignan showing the retention time of about 7.4 minutes was detected,peak D having the spectrum of lignan (retention time of about 7.4 minutes) was newly obtained,
Oc1cc2c(cc1[C@H]1OC[C@H]3[C@@H]1CO[C@@H]3c1ccc3c(c1)OCO3)OCO2 [sesaminol],produced the respective monoglucosides,peak F having a new spectrum for lignan showing the retention time of about 8.2 minutes was detected,peak B having the spectrum of lignan (retention time of about 8.2 minutes) was newly obtained,peak C having the spectrum of lignan (retention time of about 8.2 minutes) was newly obtained
pinoresinol,produced the respective monoglucosides,any peak with a spectrum for any new lignan was detected,peak A having the spectrum of lignan (retention time of about 4.0 minutes) was newly obtained,any new product was not observed
